Results taken from the supplement of paper PMC10307832.

Columns and labels:
Experiment in all cases: relative viability (nuclei count vs DMSO), 5 days (fraction); higher = more cells survive
[1] = compound: O=S(=O)(c1ccccc1)N(CC(F)(F)F)c1ccc(C(O)(C(F)(F)F)C(F)(F)F)cc1 + C[C@]1(O)C[C@@H](c2nc(-c3ccc4ccc(-c5ccccc5)nc4c3)c3c(N)nccn32)C1 [Linsitinib] (partner 1 µM)
In short: (§1)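 One day after seeding in 1536-well plates, lung cancer cell lines were dosed by pin tool. Dosing was either single-drug or a fixed anchor-drug dose plus five library-drug doses (not always all listed) in √10 steps. After 5 days, nuclei were stained in one fix-and-stain step and counted on 4× images, and relative viability is the nuclei count of treated wells over that of vehicle wells, given as the median of duplicate plates.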

RO-3306 + Foretinib = compound: C1=CC2=C(C=CC(=C2)C=C3C(=O)NC(=NCC4=CC=CS4)S3)N=C1 [RO-3306] + COc1cc2c(Oc3ccc(NC(=O)C4(C(=O)Nc5ccc(F)cc5)CC4)cc3F)ccnc2cc1OCCCN1CCOCC1 [Foretinib] (partner 0.25 µM)
In short: as §1

[2] = compound: O=S(=O)(c1ccccc1)N(CC(F)(F)F)c1ccc(C(O)(C(F)(F)F)C(F)(F)F)cc1 + COc1cc2c(Oc3ccc(NC(=O)C4(C(=O)Nc5ccc(F)cc5)CC4)cc3F)ccnc2cc1OCCCN1CCOCC1 [Foretinib] (partner 0.25 µM)
In short: as §1

[3] = compound: O=S(=O)(c1ccccc1)N(CC(F)(F)F)c1ccc(C(O)(C(F)(F)F)C(F)(F)F)cc1 + Cc1nc(NC(=O)N2CCC[C@H]2C(N)=O)sc1-c1ccnc(C(C)(C)C(F)(F)F)c1 [Alpelisib] (partner 2 µM)
In short: as §1

RO-3306 + OSI-027 = compound: C1=CC2=C(C=CC(=C2)C=C3C(=O)NC(=NCC4=CC=CS4)S3)N=C1 [RO-3306] + COc1cccc2cc(-c3nc([C@H]4CC[C@H](C(=O)O)CC4)n4ncnc(N)c34)[nH]c12 [OSI-027] (partner 0.5 µM)
In short: as §1

| Cell Line | relative viability ([1]; first compound 0.8 µM) | relative viability ([1]; first compound 2.53 µM) | relative viability ([1]; first compound 8 µM) | relative viability (RO-3306 + Foretinib; first compound 0.01 µM) | relative viability (RO-3306 + Foretinib; first compound 0.03162 µM) | relative viability (RO-3306 + Foretinib; first compound 0.1 µM) | relative viability (RO-3306 + Foretinib; first compound 0.3162 µM) | relative viability (RO-3306 + Foretinib; first compound 1 µM) | relative viability ([2]; first compound 0.8 µM) | relative viability ([2]; first compound 2.53 µM) | relative viability ([2]; first compound 8 µM) | relative viability ([3]; first compound 0.8 µM) | relative viability ([3]; first compound 2.53 µM) | relative viability ([3]; first compound 8 µM) | relative viability (RO-3306 + OSI-027; first compound 0.01 µM) | relative viability (RO-3306 + OSI-027; first compound 0.03162 µM) | relative viability (RO-3306 + OSI-027; first compound 0.1 µM) | relative viability (RO-3306 + OSI-027; first compound 0.3162 µM) | relative viability (RO-3306 + OSI-027; first compound 1 µM) |
| --- | --- | --- | --- | --- | --- | --- | --- | --- | --- | --- | --- | --- | --- | --- | --- | --- | --- | --- | --- |
| LCLC-103H | 1.06 | 1.17 | 0.936 | 0.695 | 0.647 | 0.779 | 0.719 | 0.835 | 0.973 | 0.758 | 0.81 | 1.11 | 0.999 | 1.03 | 0.479 | 0.392 | 0.45 | 0.418 | 0.508 |
| NCI-H2347 | 1.1 | 1.01 | 0.825 | 0.982 | 0.503 | 0.868 | 0.702 | 0.741 | 1.2 | 0.996 | 0.683 | 1.25 | 1.2 | 1.04 | 0.449 | 0.404 | 0.421 | 0.249 | 0.356 |
| NCI-H322M | 1.09 | 0.915 | 0.999 | 1.05 | 0.815 | 0.896 | 0.962 | 1.02 | 1.08 | 0.915 | 0.953 | 0.794 | 0.792 | 0.73 | 0.535 | 0.527 | 0.532 | 0.571 | 0.503 |
| NCI-H596 | 1.17 | 0.838 | 0.968 | 0.716 | 0.797 | 0.818 | 0.872 | 0.77 | 0.876 | 0.711 | 0.887 | 0.423 | 0.419 | 0.421 | 0.788 | 0.72 | 0.7 | 0.729 | 0.579 |
| NCI-H647 | 1.31 | 1.07 | 1.16 | 1.29 | 1.12 | 1.12 | 1.27 | 1.24 | 1.48 | 1.19 | 1.03 | 1.25 | 1.01 | 1.35 | 0.644 | 0.608 | 0.636 | 0.84 | 0.673 |
| NCI-H1666 | 0.788 | 0.703 | 0.78 | 0.936 | 0.891 | 0.905 | 1.04 | 0.935 | 0.936 | 0.863 | 0.863 | 0.776 | 0.868 | 0.892 | 0.747 | 0.73 | 0.749 | 0.817 | 0.853 |
| LOU-NH91 | 0.996 | 0.92 | 0.915 | 0.879 | 0.94 | 0.951 | 0.87 | 0.976 | 0.999 | 0.884 | 0.937 | 0.654 | 0.721 | 0.74 | 0.686 | 0.712 | 0.711 | 0.719 | 0.686 |
| EMC-BAC-2 | 0.902 | 0.846 | 0.796 | 0.977 | 0.892 | 0.976 | 1.03 | 1.05 | 1.22 | 1.04 | 0.954 | 0.874 | 0.754 | 0.757 | 0.306 | 0.36 | 0.358 | 0.352 | 0.315 |
| NCI-H2085 | 1.07 | 0.888 | 0.844 | 0.866 | 0.766 | 0.78 | 1.11 | 0.94 | 0.886 | 0.725 | 0.885 | 0.982 | 0.885 | 0.969 | 0.598 | 0.728 | 0.642 | 0.664 | 0.635 |
| HCC-78 | 0.45 | 0.426 | 0.444 | 0.487 | 0.568 | 0.595 | 0.564 | 0.573 | 0.533 | 0.459 | 0.466 | 0.349 | 0.298 | 0.289 | 0.324 | 0.401 | 0.384 | 0.404 | 0.329 |
| A-427 | 1.04 | 1.03 | 1.12 | 0.923 | 0.937 | 1.07 | 1.06 | 1.13 | 1.1 | 0.967 | 1.09 | 1.11 | 1.02 | 1.02 | 0.459 | 0.457 | 0.423 | 0.451 | 0.497 |
| NCI-H441 | 0.559 | 0.504 | 0.49 | 0.911 | 0.937 | 0.944 | 1.07 | 0.937 | 0.916 | 0.927 | 0.952 | 0.815 | 0.481 | 0.64 | 0.555 | 0.506 | 0.541 | 0.617 | 0.534 |
| NCI-H1993 | 0.7 | 0.721 | 0.806 | 0.924 | 0.794 | 0.789 | 0.727 | 0.809 | 0.681 | 0.726 | 0.679 | 0.707 | 0.674 | 0.77 | 0.6 | 0.581 | 0.507 | 0.614 | 0.543 |
| NCI-H1975 | 1.09 | 1.16 | 0.88 | 0.975 | 1 | 1.02 | 0.985 | 0.793 | 1.11 | 1.01 | 1.13 | 0.616 | 0.581 | 0.594 | 0.959 | 0.614 | 0.655 | 0.788 | 0.613 |
